From patent US5646148A, “HIV protease inhibitors useful for the treatment of AIDS” (Merck & Co., Inc., priority 1995, dated 1997)
pIC50: −log10 of the molar value.

How the values were obtained:
HIV protease = molecular target: T1, HIV protease (Human immunodeficiency virus type 1 group M subtype B, UniProt P04585); assay: Assay for Inhibition of Microbial Expressed HIV Protease; format: biochemical; settings: protease expressed in Eschericia coli; peptide substrate Val-Ser-Gln-Asn-(betanapthyl)Ala-Pro-Ile-Val; 50 mM Na acetate, pH 5.5, 30° C., 1 hour; HPLC
T1 construct: the protease expressed in Eschericia coli; made in house; host or cells: Escherichia coli
Description: Inhibition studies of the reaction of the protease expressed in Eschericia coli with a peptide substrate [Val-Ser-Gln-Asn-(betanapthyl)Ala-Pro-Ile-Val, 0.5 mg/mL at the time the reaction is initiated] were in 50 mM Na acetate, pH 5.5, at 30° C. for 1 hour. Various concentrations of inhibitor in 1.0 μl DMSO were added to 25 μl of the peptide solution in water. The reaction is initiated by the addition of 15 μl of 0.33 nM protease (0.11 ng) in a solution of 0.133M Na acetate pH 5.5 and 0.1% bovine serum albumin. The reaction was quenched with 160 μl of 5% phosphoric acid. Products of the reaction were separated by HPLC (VYDAC wide pore 5 cm C-18 reverse phase, acetonitrile gradient, 0.1% phosphoric acid). The extent of inhibition of the reaction was determined from the peak heights of the products.

HIV-1 = assay: Cell spread assay: inhibition of the spread of HIV in cell culture (MT-4 T-lymphoid cells, p24); format: cell-based; settings: Human immunodeficiency virus 1, 72 h, MT-4 T-lymphoid cells infected with HIV-1 (wild-type), 24 h preincubation, then 3 additional days with inhibitor, read-out: CIC95, inhibitor concentration which reduced the spread of infection by at least 95%
Description: Inhibition of the spread of HIV in cell culture was measured according to Nunberg, J. H. et al., J. Virol. 65, 4887 (1991). In this assay, MT-4 T-lymphoid cells were infected with HIV-1 (wild-type, unless otherwise indicated) by using a predetermined inoculum, and cultures were incubated for 24 h. At this time, ≤1% of the cells were positive by indirect immunofluorescence. Cells were then extensively washed and distributed into 96-well culture dishes. Serial twofold dilutions of inhibitor were added to the wells, and cultures were continued for 3 additional days. At 4 days postinfection, 100% of the cells in control cultures were infected. HIV-1 p24 accumulation was directly correlated with virus spread. The cell culture inhibitory concentration was defined as the inhibitor concentration in nanomoles/liter which reduced the spread of infection by at least 95%, or CIC95. The CIC95 for compound A is 25 nM.
INHIBITION OF VIRUS SPREAD
A. Preparation of HIV-infected MT-4 cell Suspension. […]
The concentration of HIV p24 antigen is measured by an enzyme immunoassay, described as follows. Aliquots of p24 antigen to be measured are added to microwells coated with a monoclonal antibody specific for HIV core antigen. […]

`CC(C)(C)NC(=O)C1CN(Cc2cnc3occc3c2)CCN1CC(O)CC(Cc1ccccc1)C(=O)NC1c2ccccc2CC1O` [Compound A, N-(2(R)-hydroxy-1(S)-indanyl)-2(R)-phenylmethyl-4(S)-hydroxy-5-(1-(4-(3-furo[2,3-b]pyridylmethyl)-2(S)-N'-(t-butylcarboxamido)-piperazinyl))pentaneamide] showed a pIC50 (HIV protease) of ~9.57 and an IC95 (HIV-1) of 25 nM.
